Assays:
Experiment in all cases: relative viability (nuclei count vs DMSO), 5 days (fraction); higher = more cells survive
[1] = compound: CCN1C(=O)C2=CC(=C(N=C2N(C1=O)C3CC3)N)C(=O)N + CC(C)C[C@H](NC(=O)[C@H](Cc1ccccc1)NC(=O)c1cnccn1)B(O)O [Bortezomib] (partner 0.002 µM)
Procedure, shortened: (§1)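 One day after seeding in 1536-well plates, lung cancer cell lines were dosed by pin tool. Dosing was either single-drug or a fixed anchor-drug dose plus five library-drug doses (not always all listed) in √10 steps. After 5 days, nuclei were stained in one fix-and-stain step and counted on 4× images, and relative viability is the nuclei count of treated wells over that of vehicle wells, given as the median of duplicate plates.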

[2] = compound: CCN1C(=O)C2=CC(=C(N=C2N(C1=O)C3CC3)N)C(=O)N + COc1cccc2cc(-c3nc([C@H]4CC[C@H](C(=O)O)CC4)n4ncnc(N)c34)[nH]c12 [OSI-027] (partner 0.5 µM)
Procedure, shortened: as §1

[3] = compound: CCN1C(=O)C2=CC(=C(N=C2N(C1=O)C3CC3)N)C(=O)N + C[C@@H](Oc1cc(-c2cnn(C3CCNCC3)c2)cnc1N)c1c(Cl)ccc(F)c1Cl [Crizotinib] (partner 1 µM)
Procedure, shortened: as §1

[4] = compound: CCN1C(=O)C2=CC(=C(N=C2N(C1=O)C3CC3)N)C(=O)N + Nc1nc2[nH]cc(CCc3ccc(C(=O)N[C@@H](CCC(=O)O)C(=O)O)cc3)c2c(=O)[nH]1 [Pemetrexed] (partner 0.2 µM)
Procedure, shortened: as §1

[5] = compound: CCN1C(=O)C2=CC(=C(N=C2N(C1=O)C3CC3)N)C(=O)N + Nc1ncn([C@H]2C[C@H](O)[C@@H](CO)O2)c(=O)n1 [Decitabine] (partner 2 µM)
Procedure, shortened: as §1

Cell Line	relative viability ([1]; first compound 0.253 µM)	relative viability ([1]; first compound 0.8 µM)	relative viability ([1]; first compound 2.53 µM)	relative viability ([1]; first compound 8 µM)	relative viability ([2]; first compound 0.253 µM)	relative viability ([2]; first compound 0.8 µM)	relative viability ([2]; first compound 2.53 µM)	relative viability ([2]; first compound 8 µM)	relative viability ([3]; first compound 0.253 µM)	relative viability ([3]; first compound 0.8 µM)	relative viability ([3]; first compound 2.53 µM)	relative viability ([3]; first compound 8 µM)	relative viability ([4]; first compound 0.253 µM)	relative viability ([4]; first compound 0.8 µM)	relative viability ([4]; first compound 2.53 µM)	relative viability ([4]; first compound 8 µM)	relative viability ([5]; first compound 0.253 µM)	relative viability ([5]; first compound 0.8 µM)	relative viability ([5]; first compound 2.53 µM)	relative viability ([5]; first compound 8 µM)
LU99A	1.25	1.16	1.06	1.19	0.34	0.294	0.284	0.288	0.587	0.57	0.476	0.591	0.174	0.187	0.168	0.184	0.765	0.952	0.873	0.828
LXF-289	0.987	0.997	0.966	0.994	0.827	0.864	0.815	0.793	0.834	0.852	0.759	0.84	0.917	0.889	0.895	0.993	0.345	0.37	0.346	0.336
NCI-H23	1.02	1.03	1.08	0.956	0.494	0.64	0.587	0.583	0.387	0.561	0.396	0.532	0.785	0.734	0.677	0.634	0.315	0.305	0.289	0.32
NCI-H322M	1.25	0.701	1.25	1.14	0.498	0.498	0.512	0.549	0.814	0.872	0.887	0.943	0.632	0.541	0.634	0.6	0.697	0.728	0.673	0.719
NCI-H441	0.464	0.421	0.456	0.775	0.686	0.746	0.703	0.583	0.706	0.654	0.773	0.781	0.272	0.246	0.263	0.26	0.305	0.244	0.265	0.258
NCI-H460	1.16	1.03	0.983	1.23	0.586	0.599	0.577	0.547	0.943	0.969	0.684	0.986	0.0628	0.0522	0.0677	0.0646	0.454	0.462	0.524	0.301
NCI-H520	0.574	0.574	0.743	0.612	0.296	0.315	0.346	0.304	0.698	0.64	0.645	1.29	0.635	0.64	0.703	0.657	0.483	0.48	0.474	0.428
NCI-H596		0.807	1.11	1.01	0.735	0.7	0.843	0.679	1.05	0.984	1.08	0.948	0.465	0.507	0.573	0.497		0.925	0.955	0.951
NCI-H647	0.92	1.05	0.951	0.784	0.598	0.724	0.647	0.591	0.869	0.906	0.948	1.26	0.174	0.205	0.157	0.185	0.444	0.411	0.458	0.433
NCI-H650	1.03	0.701	0.935	0.701	0.527	0.46	0.516	0.457	0.832	0.721	0.615	0.716	0.962	0.782	0.954	0.978	0.331	0.325	0.329	0.283
NCI-H661	0.809	0.9	0.793	0.942	0.773	0.742	0.681	0.677	1.05	1.05	0.987	1.06	0.918	0.905	0.935	0.886	0.544	0.551	0.517	0.543
NCI-H838	0.857	0.887	0.891	0.912	0.404	0.406	0.41	0.374	0.868	0.817	0.74	0.717	0.239	0.274	0.242	0.248	0.469	0.426	0.411	0.451
NCI-H1355	1.22	1.3	1.22	1.25	0.5	0.464	0.455	0.376	1.12	1.05	1.02	1.1	1.03	1	1.03	0.96	0.325	0.331	0.382	0.339
NCI-H1437	0.489	0.543	0.515	0.618	0.939	0.867	0.919	0.894	0.938	0.993	0.818	1.09	0.294	0.316	0.287	0.304	0.654	0.578	0.591	0.509
NCI-H1650	0.192	0.185	0.182	0.187	0.577	0.444	0.629	0.544	0.982	0.897	1.11	1.2	0.38	0.324	0.333	0.382	0.351	0.404	0.43	0.401
NCI-H1651	0.996	0.897	0.964	0.858	0.643	0.691	0.734	0.606	0.892	0.884	0.858	0.868	0.582	0.608	0.588	0.597	0.534	0.585	0.582	0.386

Cell Line	relative viability ([1]; first compound 0.253 µM)	relative viability ([1]; first compound 0.8 µM)	relative viability ([1]; first compound 2.53 µM)	relative viability ([1]; first compound 8 µM)	relative viability ([2]; first compound 0.253 µM)	relative viability ([2]; first compound 0.8 µM)	relative viability ([2]; first compound 2.53 µM)	relative viability ([2]; first compound 8 µM)	relative viability ([3]; first compound 0.253 µM)	relative viability ([3]; first compound 0.8 µM)	relative viability ([3]; first compound 2.53 µM)	relative viability ([3]; first compound 8 µM)	relative viability ([4]; first compound 0.253 µM)	relative viability ([4]; first compound 0.8 µM)	relative viability ([4]; first compound 2.53 µM)	relative viability ([4]; first compound 8 µM)	relative viability ([5]; first compound 0.253 µM)	relative viability ([5]; first compound 0.8 µM)	relative viability ([5]; first compound 2.53 µM)	relative viability ([5]; first compound 8 µM)
NCI-H1666	0.739	0.692	0.848	0.74		0.838	0.863	0.834	1.16	0.998	0.883	1	0.844	0.879	0.812	0.799	0.615	0.688	0.728	0.68
NCI-H1734	0.953	0.999	0.918	1	0.734	0.554	0.531	0.596	0.716	0.635	0.618	0.769	0.432	0.392	0.405	0.423	0.499	0.488	0.502	0.565
NCI-H1755	0.949	0.966	0.921	0.948	0.744	0.749	0.703	0.72	0.895	0.865	0.875	0.918	0.525	0.412	0.418	0.471	0.771	0.743	0.704	0.652
NCI-H1792	0.983	0.861	1.03	1.06	0.69	0.696	0.733	0.651	1.1	0.902	1.08	0.878	0.733	0.77	0.911	0.909	0.652	0.54	0.494	0.576
NCI-H1915	0.968	0.93	0.955	0.955	0.636	0.638	0.6	0.679	0.895	0.921	0.851	0.911	0.5	0.507	0.493	0.509	0.243	0.261	0.252	0.249
NCI-H1975	0.378	0.423	0.413	0.439	0.809	0.697	0.604	0.536	0.948	0.94	0.97	0.949	0.294	0.292	0.319	0.288	0.352	0.401	0.388	0.365
NCI-H1993	1.05	0.925	0.983	1.11	0.578	0.558	0.523	0.534	0.998	0.86	0.819	0.882	0.607	0.525	0.607	0.541	0.677	0.586	0.555	0.701
NCI-H2009	0.963	1.09	0.965	0.94	0.634	0.622	0.619	0.621	1.05	1.03	0.99	1.05	1.1	1.09	1	0.966	0.385	0.409	0.394	0.379
NCI-H2023	0.829	0.915	0.95	0.984	0.449	0.365	0.386	0.34	0.639	0.622	0.585	0.606	0.198	0.182	0.222	0.247	0.214	0.223	0.209	0.215
NCI-H2085	0.971	1.1	1.04	0.996	0.728	0.691	0.738	0.684	0.861	0.985	0.84	1.01	0.914	0.847	0.987	0.851	0.566	0.522	0.563	0.524
NCI-H2087	0.837	0.845	0.781	0.985	0.437	0.671	0.636	0.55	0.809	0.937	0.627	0.872	0.676	0.629	0.677	0.608	0.324	0.251	0.297	0.298
NCI-H2126	1.14	1.14	1.16	1.05	0.598	0.541	0.819	0.747	1.03	1.02	1.01	0.977	0.682	0.671	0.674	0.674	0.552	0.544	0.541	0.622
NCI-H2347	0.982	0.933	1.19	0.778	0.481	0.344	0.384	0.346	0.862	0.841	0.712	0.719	0.458	0.442	0.421	0.447	0.722	0.66	0.622	0.643
NCI-H2405	1	1.05	1.01	0.952	0.664	0.667	0.604	0.616	0.866	0.844	0.817	0.873	1.1		1.14	1.03	0.771		0.718	0.669
NCI-H3122	1.04	1.01	1.02	1.01	0.888	0.948	0.905	0.93	0.257	0.273	0.27	0.277	0.217	0.198	0.202	0.192	0.396	0.432	0.434	0.427
PC-3 [JPC-3]	0.874	0.799	0.914	0.801	0.746	0.85	0.735	0.791	1.04	0.953	0.914	0.94	1.1		1.26	1.2	0.81		0.871	0.886

From the supplement of paper PMC10307832
